What was measured:
[1] = test system: Phosphatidylinositol 4,5-bisphosphate 3-kinase catalytic subunit alpha isoform (Homo sapiens), P42336 [E545K]; conditions: at 10 µM
[2] = molecular target: Ribosomal protein S6 kinase alpha-2 (Homo sapiens) (UniProt Q15349); experiment: Selectivity interaction (KinomeScan (DiscoverX)) EUB0000045b RPS6KA2
[3] = molecular target: Tyrosine-protein kinase ABL1 (Homo sapiens, UniProt P00519); experiment: Selectivity interaction (KinomeScan (DiscoverX)) EUB0000666a ABL1; conditions: at 10 µM
[4] = molecular target: Calcium/calmodulin-dependent protein kinase type II subunit gamma (Homo sapiens) (UniProt Q13555); experiment: Selectivity interaction (KinomeScan (DiscoverX)) EUB0000666a CAMK2G; conditions: at 10 µM
Sequence of Calcium/calmodulin-dependent protein kinase type II subunit gamma (Homo sapiens) (Q13555 whole entry, the tested form may be a part): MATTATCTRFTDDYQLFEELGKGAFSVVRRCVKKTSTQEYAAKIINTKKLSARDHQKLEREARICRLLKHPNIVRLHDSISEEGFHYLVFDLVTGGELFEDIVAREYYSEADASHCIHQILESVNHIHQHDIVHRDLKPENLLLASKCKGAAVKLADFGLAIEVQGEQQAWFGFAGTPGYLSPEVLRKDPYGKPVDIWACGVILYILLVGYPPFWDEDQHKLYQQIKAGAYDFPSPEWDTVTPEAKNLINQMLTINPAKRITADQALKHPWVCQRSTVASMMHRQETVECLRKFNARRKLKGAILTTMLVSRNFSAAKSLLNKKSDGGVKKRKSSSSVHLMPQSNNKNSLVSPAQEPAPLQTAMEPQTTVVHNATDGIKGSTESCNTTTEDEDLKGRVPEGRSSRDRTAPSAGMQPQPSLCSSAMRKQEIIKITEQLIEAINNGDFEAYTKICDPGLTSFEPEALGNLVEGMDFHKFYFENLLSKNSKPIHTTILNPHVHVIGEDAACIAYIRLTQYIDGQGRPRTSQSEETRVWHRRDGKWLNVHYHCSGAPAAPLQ

[5] = molecular target: T1, Discoidin domain-containing receptor 2 (Homo sapiens) (UniProt Q16832); conditions: at 10 µM
T1 sequence (whole entry): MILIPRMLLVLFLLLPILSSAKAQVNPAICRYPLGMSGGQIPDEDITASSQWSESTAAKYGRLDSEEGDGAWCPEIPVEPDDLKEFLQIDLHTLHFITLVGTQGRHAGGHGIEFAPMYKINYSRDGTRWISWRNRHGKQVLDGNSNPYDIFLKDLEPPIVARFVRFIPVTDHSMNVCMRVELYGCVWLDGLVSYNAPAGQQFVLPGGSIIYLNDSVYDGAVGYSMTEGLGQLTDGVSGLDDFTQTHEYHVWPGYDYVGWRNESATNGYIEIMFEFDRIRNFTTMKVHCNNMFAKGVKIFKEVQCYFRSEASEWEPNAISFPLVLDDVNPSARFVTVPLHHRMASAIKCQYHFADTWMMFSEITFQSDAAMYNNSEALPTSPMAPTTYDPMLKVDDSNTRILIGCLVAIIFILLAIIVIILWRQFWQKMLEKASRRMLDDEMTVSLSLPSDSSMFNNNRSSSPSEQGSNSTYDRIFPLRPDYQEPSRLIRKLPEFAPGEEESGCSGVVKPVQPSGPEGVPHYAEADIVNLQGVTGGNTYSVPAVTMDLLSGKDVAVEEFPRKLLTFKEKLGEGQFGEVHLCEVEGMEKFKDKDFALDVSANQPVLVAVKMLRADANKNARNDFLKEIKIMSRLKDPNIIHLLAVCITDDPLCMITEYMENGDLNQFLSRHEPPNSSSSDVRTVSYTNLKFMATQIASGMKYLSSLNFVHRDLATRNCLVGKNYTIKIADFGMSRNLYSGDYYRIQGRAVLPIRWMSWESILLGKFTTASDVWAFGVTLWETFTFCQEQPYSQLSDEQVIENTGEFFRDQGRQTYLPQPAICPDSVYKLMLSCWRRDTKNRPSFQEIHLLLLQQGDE

[6] = molecular target: Hepatocyte growth factor-like protein (Homo sapiens) (UniProt P26927)
[7] = molecular target: T2, Testis-specific serine/threonine-protein kinase 1 (Homo sapiens) (UniProt Q9BXA7); experiment: Selectivity interaction (KinomeScan (DiscoverX)) EUB0001049a TSSK1B; conditions: at 1 µM
T2 sequence (whole entry): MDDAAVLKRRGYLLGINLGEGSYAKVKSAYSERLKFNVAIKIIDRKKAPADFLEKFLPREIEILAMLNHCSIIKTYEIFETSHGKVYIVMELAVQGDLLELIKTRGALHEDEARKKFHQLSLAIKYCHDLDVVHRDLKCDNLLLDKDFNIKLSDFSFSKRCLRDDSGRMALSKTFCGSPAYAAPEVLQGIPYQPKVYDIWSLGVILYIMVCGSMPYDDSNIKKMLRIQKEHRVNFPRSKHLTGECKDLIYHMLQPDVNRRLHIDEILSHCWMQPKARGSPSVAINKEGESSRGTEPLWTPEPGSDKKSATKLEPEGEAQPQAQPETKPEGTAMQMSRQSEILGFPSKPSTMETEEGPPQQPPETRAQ

[8] = molecular target: Serine/threonine-protein kinase Chk2 (Homo sapiens) (UniProt O96017); experiment: Selectivity interaction (Upstate Kinase Profiler service (Millipore)) EUB0000056c CHEK2; conditions: at 1 µM
Sequence of Serine/threonine-protein kinase Chk2 (Homo sapiens) (O96017 whole entry): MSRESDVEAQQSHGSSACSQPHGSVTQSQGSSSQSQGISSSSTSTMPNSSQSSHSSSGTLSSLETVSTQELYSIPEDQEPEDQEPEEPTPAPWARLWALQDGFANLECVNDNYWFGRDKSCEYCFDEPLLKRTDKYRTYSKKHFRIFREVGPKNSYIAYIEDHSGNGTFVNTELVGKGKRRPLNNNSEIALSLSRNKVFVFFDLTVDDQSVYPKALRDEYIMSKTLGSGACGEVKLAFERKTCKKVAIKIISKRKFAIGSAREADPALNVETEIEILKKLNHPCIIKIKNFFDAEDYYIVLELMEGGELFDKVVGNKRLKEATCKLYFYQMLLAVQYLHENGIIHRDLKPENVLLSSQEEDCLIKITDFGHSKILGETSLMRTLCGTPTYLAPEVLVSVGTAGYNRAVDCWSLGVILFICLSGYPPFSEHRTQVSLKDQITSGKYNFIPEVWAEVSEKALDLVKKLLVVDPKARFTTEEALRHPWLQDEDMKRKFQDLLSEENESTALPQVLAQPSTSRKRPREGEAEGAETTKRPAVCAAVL

[9] = molecular target: Inositol-tetrakisphosphate 1-kinase (Homo sapiens) (UniProt Q13572); experiment: Selectivity interaction (ActivX KiNativ screen (ex vivo kinase selectivity in human PBMCs)) EUB0001619a ITPK1; type: cell-based; conditions: PBMC, at 1 µM
Sequence of Inositol-tetrakisphosphate 1-kinase (Homo sapiens) (Q13572 whole entry, canonical isoform): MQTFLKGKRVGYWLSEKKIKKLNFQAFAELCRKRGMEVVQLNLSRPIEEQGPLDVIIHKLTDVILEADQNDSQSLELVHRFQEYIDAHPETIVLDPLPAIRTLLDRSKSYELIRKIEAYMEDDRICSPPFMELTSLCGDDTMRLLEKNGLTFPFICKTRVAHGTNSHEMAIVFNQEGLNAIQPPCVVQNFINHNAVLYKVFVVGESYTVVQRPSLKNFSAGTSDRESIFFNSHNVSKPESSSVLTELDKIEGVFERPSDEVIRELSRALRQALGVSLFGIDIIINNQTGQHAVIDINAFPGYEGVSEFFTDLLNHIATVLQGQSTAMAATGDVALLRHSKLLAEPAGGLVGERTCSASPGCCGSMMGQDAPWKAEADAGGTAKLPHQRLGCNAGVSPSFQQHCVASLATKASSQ

[10] = molecular target: Phosphorylase b kinase gamma catalytic chain, skeletal muscle/heart isoform (Homo sapiens) (UniProt Q16816); experiment: Selectivity interaction (KinomeScan (DiscoverX)) EUB0001619a PHKG1; conditions: at 1 µM
[11] = molecular target: Mitogen-activated protein kinase 8 (Homo sapiens, UniProt P45983); experiment: Selectivity interaction (KinomeScan (DiscoverX)) EUB0000618a MAPK8; conditions: at 10 µM
Sequence of Mitogen-activated protein kinase 8 (P45983 whole entry): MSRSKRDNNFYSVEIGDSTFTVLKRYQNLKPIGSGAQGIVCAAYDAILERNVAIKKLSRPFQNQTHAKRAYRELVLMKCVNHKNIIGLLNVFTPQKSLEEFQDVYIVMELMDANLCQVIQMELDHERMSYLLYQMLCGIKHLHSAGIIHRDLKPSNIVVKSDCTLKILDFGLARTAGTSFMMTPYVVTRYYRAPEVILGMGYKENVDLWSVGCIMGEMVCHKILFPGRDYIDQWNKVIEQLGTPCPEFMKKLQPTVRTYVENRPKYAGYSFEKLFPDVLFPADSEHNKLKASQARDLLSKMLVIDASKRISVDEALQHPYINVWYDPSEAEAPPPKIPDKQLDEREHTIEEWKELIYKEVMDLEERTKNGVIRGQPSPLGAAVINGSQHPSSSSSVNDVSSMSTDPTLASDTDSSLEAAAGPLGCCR

[12] = molecular target: Serine/threonine-protein kinase 10 (Homo sapiens) (UniProt O94804); experiment: Selectivity interaction (KinomeScan (DiscoverX)) EUB0000092b STK10; conditions: at 10 µM
Sequence of Serine/threonine-protein kinase 10 (Homo sapiens) (O94804 whole entry, looked up): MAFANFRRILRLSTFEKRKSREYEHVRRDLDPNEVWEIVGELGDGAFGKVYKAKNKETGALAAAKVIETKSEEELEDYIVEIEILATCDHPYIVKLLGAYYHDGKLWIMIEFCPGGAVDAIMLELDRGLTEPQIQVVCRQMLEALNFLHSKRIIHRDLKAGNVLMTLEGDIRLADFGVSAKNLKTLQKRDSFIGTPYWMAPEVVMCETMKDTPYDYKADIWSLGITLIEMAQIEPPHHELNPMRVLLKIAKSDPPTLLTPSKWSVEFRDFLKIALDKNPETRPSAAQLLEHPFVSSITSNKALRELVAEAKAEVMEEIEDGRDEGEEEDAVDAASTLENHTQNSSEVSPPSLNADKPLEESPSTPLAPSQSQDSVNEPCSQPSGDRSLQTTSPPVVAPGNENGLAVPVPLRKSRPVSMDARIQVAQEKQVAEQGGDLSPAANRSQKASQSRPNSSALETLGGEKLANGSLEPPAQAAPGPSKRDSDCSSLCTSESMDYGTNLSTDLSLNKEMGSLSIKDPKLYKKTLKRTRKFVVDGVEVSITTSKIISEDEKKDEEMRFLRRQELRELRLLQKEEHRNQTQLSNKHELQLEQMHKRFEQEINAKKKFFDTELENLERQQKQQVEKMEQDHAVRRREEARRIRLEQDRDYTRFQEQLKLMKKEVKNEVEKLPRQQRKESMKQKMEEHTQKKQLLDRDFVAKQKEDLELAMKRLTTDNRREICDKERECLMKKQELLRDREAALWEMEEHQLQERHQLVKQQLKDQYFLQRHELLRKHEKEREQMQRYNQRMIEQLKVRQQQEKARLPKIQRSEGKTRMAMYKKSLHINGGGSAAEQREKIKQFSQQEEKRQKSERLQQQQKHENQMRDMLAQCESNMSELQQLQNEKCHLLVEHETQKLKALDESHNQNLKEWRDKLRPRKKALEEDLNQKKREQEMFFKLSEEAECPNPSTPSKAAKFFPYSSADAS

[13] = molecular target: T3, Mitogen-activated protein kinase kinase kinase 13 (Homo sapiens) (UniProt O43283); experiment: Selectivity interaction (KinomeScan (DiscoverX)) EUB0000092b MAP3K13; conditions: at 10 µM
T3 sequence (whole entry): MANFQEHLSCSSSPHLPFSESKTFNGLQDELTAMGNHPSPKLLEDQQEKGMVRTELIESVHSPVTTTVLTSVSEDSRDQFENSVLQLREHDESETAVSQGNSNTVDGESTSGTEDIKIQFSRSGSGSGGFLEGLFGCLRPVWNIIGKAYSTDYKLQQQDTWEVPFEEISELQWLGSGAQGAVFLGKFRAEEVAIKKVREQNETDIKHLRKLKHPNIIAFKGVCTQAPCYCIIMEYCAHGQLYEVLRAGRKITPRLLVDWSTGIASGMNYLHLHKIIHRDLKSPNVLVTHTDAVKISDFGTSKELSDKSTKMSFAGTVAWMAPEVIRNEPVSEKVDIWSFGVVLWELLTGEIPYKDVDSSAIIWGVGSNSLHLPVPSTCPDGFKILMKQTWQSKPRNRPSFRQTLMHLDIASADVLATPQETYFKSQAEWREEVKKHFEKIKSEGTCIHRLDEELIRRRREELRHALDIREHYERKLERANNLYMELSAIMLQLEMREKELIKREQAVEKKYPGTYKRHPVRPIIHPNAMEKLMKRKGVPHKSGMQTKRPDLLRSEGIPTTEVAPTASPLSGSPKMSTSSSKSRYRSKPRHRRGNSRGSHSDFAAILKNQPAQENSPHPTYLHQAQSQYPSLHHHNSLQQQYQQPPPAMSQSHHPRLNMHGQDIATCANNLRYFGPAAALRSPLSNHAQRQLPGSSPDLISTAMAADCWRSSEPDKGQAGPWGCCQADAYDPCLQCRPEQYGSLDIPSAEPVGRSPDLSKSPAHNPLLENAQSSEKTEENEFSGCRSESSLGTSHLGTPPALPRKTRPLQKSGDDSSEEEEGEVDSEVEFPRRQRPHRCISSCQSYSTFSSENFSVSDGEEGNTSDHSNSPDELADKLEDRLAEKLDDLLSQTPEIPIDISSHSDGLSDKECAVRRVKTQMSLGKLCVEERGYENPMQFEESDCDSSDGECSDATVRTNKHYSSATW

Sequence of Ribosomal protein S6 kinase alpha-2 (Homo sapiens) (Q15349 whole entry): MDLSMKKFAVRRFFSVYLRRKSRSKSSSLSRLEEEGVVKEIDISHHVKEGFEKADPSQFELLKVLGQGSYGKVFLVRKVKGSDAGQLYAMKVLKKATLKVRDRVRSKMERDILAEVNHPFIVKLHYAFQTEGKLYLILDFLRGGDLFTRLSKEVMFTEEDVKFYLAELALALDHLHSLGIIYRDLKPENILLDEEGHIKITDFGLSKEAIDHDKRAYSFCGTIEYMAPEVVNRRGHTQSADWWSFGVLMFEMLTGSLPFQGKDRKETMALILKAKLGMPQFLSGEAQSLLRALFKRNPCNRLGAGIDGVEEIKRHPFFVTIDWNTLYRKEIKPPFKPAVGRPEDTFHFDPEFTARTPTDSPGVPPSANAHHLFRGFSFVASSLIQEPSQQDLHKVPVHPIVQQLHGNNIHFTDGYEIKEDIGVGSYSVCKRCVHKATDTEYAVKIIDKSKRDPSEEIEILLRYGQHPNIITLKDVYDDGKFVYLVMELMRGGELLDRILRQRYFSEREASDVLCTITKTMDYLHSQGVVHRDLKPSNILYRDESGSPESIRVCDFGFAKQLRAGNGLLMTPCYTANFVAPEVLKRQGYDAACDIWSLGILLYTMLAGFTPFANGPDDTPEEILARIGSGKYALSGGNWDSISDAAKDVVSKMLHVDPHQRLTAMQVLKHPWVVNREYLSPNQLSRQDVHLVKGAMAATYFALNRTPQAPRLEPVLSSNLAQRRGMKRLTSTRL
Sequence of Phosphatidylinositol 4,5-bisphosphate 3-kinase catalytic subunit alpha isoform (Homo sapiens), P42336 [E545K] (P42336 whole entry E545K, canonical isoform): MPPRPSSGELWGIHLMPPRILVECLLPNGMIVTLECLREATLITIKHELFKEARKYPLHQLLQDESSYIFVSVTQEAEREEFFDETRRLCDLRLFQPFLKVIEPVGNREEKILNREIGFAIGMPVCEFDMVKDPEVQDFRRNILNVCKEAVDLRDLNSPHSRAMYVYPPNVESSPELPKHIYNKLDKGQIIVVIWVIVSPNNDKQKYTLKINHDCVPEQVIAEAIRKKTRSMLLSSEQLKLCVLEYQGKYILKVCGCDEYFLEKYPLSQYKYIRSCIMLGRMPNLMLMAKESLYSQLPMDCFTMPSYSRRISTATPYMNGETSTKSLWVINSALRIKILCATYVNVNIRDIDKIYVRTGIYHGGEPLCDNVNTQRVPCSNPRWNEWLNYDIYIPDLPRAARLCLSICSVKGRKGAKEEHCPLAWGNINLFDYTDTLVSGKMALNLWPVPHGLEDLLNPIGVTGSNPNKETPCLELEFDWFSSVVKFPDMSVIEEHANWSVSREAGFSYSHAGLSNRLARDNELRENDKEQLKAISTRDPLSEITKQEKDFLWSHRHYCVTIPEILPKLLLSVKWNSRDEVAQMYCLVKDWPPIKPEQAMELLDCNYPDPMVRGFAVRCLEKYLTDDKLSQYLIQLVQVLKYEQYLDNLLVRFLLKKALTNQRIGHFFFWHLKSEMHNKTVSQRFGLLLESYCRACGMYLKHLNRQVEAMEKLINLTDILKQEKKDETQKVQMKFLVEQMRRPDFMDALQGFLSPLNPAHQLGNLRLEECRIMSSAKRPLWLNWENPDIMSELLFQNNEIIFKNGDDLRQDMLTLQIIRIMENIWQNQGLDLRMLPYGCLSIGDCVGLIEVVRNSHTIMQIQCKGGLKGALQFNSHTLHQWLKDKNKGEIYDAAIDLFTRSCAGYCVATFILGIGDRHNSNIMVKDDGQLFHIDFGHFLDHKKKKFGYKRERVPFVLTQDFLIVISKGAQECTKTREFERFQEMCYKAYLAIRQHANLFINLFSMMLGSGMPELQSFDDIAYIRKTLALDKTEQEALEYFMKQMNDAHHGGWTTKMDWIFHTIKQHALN

Work on `COCC(=O)NC/C=C/c1ccc2ncnc(Nc3ccc(Oc4ccc(C)nc4)c(C)c3)c2c1` [CP-724714] yielded a % of control [1] of 100%.

`C=CC(=O)Nc1cc(-n2c(=O)ccc3cnc4ccc(-c5ccc(NS(C)(=O)=O)cc5)cc4c32)ccc1C` gave a % of control ([2]; at 1 µM) of 100% and a % of control ([2]; at 10 µM) of 68%.

`O=C(NOC[C@H](O)CO)c1ccc(F)c(F)c1Nc1ccc(I)cc1F` gave a % of control [3] of 97% and a % of control [4] of 100%.

Work on `Cc1cc([C@@H](C)Nc2ccccc2C(=O)O)c2nc(N3CCOCC3)cc(=O)n2c1` [AZD-6482] yielded a % of control [5] of 83%.

`Cc1cnc(Nc2ccc(F)cc2Cl)nc1-c1c[nH]c(C(=O)N[C@H](CO)c2cccc(Cl)c2)c1` was tested, and the % of inhibition [6] was 4%.

With `COc1cc(Nc2nc(C)cc(-c3cnn4nc(OC)ccc34)n2)cc(C(F)(F)F)c1` the % of control [7] was 100%.

`Cc1ccc(-c2ccc3c(ccc4sc5c(c43)NC[C@@H](C)NC5=O)n2)cn1` showed a % of inhibition [8] of 44%.

`N#Cc1cccc(-c2c[nH]c3ncnc(N4CCOCC4)c23)c1` was tested, and the % of inhibition [9] was -28% and the % of control [10] was 81%.

In the case of `O[C@H]1CC[C@H](Nc2ncc3nc(Nc4c(F)cc(F)cc4F)n([C@H]4CCOC4)c3n2)CC1`, the % of control [11] is reported as 0%.

For `CCC(=O)N1CCN(c2ccc(-n3c(=O)ccc4cnc5ccc(-c6cnc7ccccc7c6)cc5c43)cc2C(F)(F)F)CC1`, the % of control [12] was 79% and the % of control [13] was 100%.

Reference: ChEMBL document CHEMBL5465560, “Selectivity Literature for EUbOPEN Chemogenomic Library” (2024)
